Measurements from US4560684A, “1,4-Benzodiazepine derivatives” (priority 1982, dated 1985).
Structures can show the parent of a compound that is named as a salt. Where two headings read alike, the source gives them in different places.

Tests used:
[1] = system: tetrabenazine (TBZ) induced ptosis; assay: Antagonism to the tetrabenazine (TBZ) induced ptosis; assay type: in vivo, DS male mice; conditions: Mus musculus, sc, read-out: Anti-TBZ ptosis (ED50)
Description: (§1) Each compound was used in the form of 0.5 to 1% suspension made by mixing
(§2) with its half volume of arabic gum.
**Antagonism to the tetrabenazine (TBZ) induced ptosis: To several groups
of DS male mice in 4 to 5 weeks age, each group consisting of 5 mice was
subcutaneously administered the test compound. Half an hour later, 50
mg/kg of tetrabenazine was subcutaneously administered. Degree of the
ptosis in 1 hour was scored, and the result was subjected to the rigid
conversion. The ED50 value was obtained from the regression

[2] = system: pentylenetetrazole (PTZ) induced convulsion; assay: Antagonism to the pentylenetetrazole (PTZ) induced convulsion; assay type: in vivo, ddy male mice; conditions: Mus musculus, read-out: Anti-PTZ convulsion (ED50)
Description: as §1, §2
***Antagonism to the pentylenetetrazole (PTZ) induced convulsion: To
several groups of ddy male mice in 4 to 5 weeks age, each group consistin
of 8 mice was orally administered the test compound. Half an hour later,
125 mg/kg of pentylenetetrazole was subcutaneously administered, and the
number of mice surviving during 2 hours was observed. The ED50 value
was obtained from the survival number according to the probit method.

[3] = DS male mice, subcutaneous, half an hour before tetrabenazine 50 mg/kg s.c., ptosis scored in 1 hour
[4] = ddy male mice, oral, half an hour before pentylenetetrazole 125 mg/kg s.c., survival during 2 hours

Row | SMILES | ED50 ([1]; 1 h) | ED50 ([2]; po, 2 h) | ED50 [1, 3] | ED50 [2, 4]
1 | CN1CCC(N2C(=O)CN=C(c3ccccc3)c3ccccc32)CC1 [Compound 6] | 0.26 mg/kg | > 20 mg/kg |  | 
2 | CN1CCC(N2C(=O)CN=C(c3ccccc3F)c3ccccc32)CC1 [Compound 8, 1-(1-methyl-4-piperidinyl)-1,3-dihydro-5-(2-fluorophenyl)-2H-1,4-benzdiazepin-2-one] | 0.205 mg/kg | > 10 mg/kg |  | 
3 | CN1CCC(N2C(=O)CN=C(c3ccccc3F)c3cc(Cl)ccc32)CC1 [Compound 10] | 1.3 mg/kg | 0.77 mg/kg |  | 
4 | Cc1ccc2c(c1)C(c1ccccc1F)=NCC(=O)N2C1CCN(C)CC1 [Compound 15] | 0.839 mg/kg | > 10 mg/kg |  | 
5 | O=C1CN=C(c2ccccc2F)c2cc(Cl)ccc2N1C1CCNCC1 [Compound 23, 7-chloro-1,3-dihydro-5-(2-fluorophenyl)-1-(4-piperidinyl)-2H-1,4-benzodiazepin-2-one] |  |  | 0.075 mg/kg | 8.52 mg/kg
6 | O=C1CN=C(c2ccccc2)c2ccccc2N1C1CCNCC1 [Compound 26, 1-(4-piperidinyl)-1,3-dihydro-5-phenyl-2H-1,4-benzodiazepin-1-one hydrobromide] |  |  | 0.063 mg/kg | > 10 mg/kg
7 | CN(C)CCCN1c2ccccc2CCc2ccccc21 [imipramine, reference compound] | 0.799 mg/kg | > 10 mg/kg |  | 
